Test results: article PMC6661775 (BMC Chemistry, 2019)

How the values were obtained:
[1] = Antioxidant activity by DPPH method; settings: DPPH radical scavenging, 517 nm; ± SEM
Experimental: This method opted for evaluation of free radical scavenging activity of DPPH was based on modified procedure described by […] et al.. The tested compounds were prepared in methanolic solution and reacted with methanolic solution of DPPH at 37 °C. The reaction mixture was prepared in 96-well plate by adding 50 μL of sample, 50 μl of methanol and 50 μl of DPPH solution prepared in 0.1 mM methanol. The mechanism of action of DPPH assay was based on the fact that DPPH radical get reduced during its reaction with an antioxidant compound and results in changes of color (from deep violet to light yellow). […] The mixture of methanol (5.0 ml) and tested compounds (0.2 ml) serve as blank. Ascorbic acid served as positive control.

[2] = Hydrogen peroxide scavenging (H2O2) assay; settings: 230 nm, pH 7.4, ± SEM, read-out: IC50 (µM) ± SEM, H2O2 method
Experimental: The solution of H2O2 (100 mM) was prepared via adding up different concentrations of synthesized derivatives ranging from 5 to 80 μg/ml to H2O2 solution (2 ml), prepared in 20 mM phosphate buffer of pH 7.4. Finally, the absorbance of H2O2 was measured at 230 nm after incubating for 10 min next to a blank reading of phosphate buffer without H2O2. For every measurement, a fresh reading of blank was taken to carry out background correction. For control sample containing H2O2 was scanned for absorbance at 230 nm. Results calculated as percentage of hydrogen peroxide inhibition was estimated by the formula [(Ab–At)/[…]] × 100, where Ab is the absorbance of the control and At is the absorbance of compounds/standard taken as L-ascorbic acid (5–80 μg/ml) are shown in Table 5.

xanthine oxidase = tested on: T1, xanthine oxidase; assay: Enzyme kinetic analysis for XO-inhibitory activity (Michaelis-Menten, Lineweaver-Burk); format: biochemical, human
T1 construct: purchased Sigma (Sigma-Aldrich) MAK078
T1 sequence (P47989 whole entry): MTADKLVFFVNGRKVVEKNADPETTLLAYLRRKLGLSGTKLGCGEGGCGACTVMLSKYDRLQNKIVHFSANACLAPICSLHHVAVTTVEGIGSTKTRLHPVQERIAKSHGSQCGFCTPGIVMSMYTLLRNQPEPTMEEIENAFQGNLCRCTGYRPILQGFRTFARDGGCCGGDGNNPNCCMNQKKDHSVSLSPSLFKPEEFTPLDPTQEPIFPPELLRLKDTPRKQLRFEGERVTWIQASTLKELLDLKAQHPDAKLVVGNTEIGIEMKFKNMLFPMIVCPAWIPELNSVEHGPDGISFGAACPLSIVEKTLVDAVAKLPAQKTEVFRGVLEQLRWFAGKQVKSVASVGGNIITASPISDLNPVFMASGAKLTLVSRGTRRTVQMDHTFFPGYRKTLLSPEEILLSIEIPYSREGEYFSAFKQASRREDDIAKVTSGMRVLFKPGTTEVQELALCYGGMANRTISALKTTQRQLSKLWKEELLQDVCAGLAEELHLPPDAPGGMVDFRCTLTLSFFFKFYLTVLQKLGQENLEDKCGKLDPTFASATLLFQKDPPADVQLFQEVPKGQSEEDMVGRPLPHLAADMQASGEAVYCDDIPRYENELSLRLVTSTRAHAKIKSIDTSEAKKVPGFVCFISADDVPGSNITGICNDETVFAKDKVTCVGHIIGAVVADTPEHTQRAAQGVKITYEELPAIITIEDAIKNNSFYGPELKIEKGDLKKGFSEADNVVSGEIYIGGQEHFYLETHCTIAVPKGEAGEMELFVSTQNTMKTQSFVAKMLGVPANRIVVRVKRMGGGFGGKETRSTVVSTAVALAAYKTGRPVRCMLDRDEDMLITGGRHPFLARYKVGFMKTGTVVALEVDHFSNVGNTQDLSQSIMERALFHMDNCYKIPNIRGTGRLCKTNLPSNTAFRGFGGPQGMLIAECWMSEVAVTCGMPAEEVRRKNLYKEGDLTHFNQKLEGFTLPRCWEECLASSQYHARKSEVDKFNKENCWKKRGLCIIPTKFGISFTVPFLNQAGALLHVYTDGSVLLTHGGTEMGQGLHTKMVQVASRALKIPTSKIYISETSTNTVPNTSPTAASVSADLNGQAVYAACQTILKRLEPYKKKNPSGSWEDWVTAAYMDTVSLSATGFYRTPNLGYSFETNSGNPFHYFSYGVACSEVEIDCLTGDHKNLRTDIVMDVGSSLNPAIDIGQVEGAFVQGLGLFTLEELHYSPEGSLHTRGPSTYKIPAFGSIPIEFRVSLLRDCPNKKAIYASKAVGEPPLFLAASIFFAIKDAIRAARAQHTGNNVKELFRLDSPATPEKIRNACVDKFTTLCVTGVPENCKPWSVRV
Experimental: Firstly Michaelis–Menten curve was plotted for the enzyme activity at different concentrations of RU3a3 against different concentration of substrate (xanthine) Fig. 11.
Then double reciprocal plot (Lineweaver–Burk) analysis was done in the presence (0.25, 0.5, and 1.0 µM) and absence of RU3a3 from in vitro data generated during the oxidation of xanthine in presence of xanthine oxidase (Fig. 12). The x- and y axis intercepts of the Lineweaver–Burk plot were utilized to calculate Km and Vmax values of RU3a3 at different concentrations (Table 4).

Row | Compound | IC50 [1] [µM] | IC50 [2] [µM] | Vmax of xanthine oxidase (xanthine oxidase; Conc. of RU3a3 0.25 µM) [µmol/min] | Vmax of xanthine oxidase (xanthine oxidase; Conc. of RU3a3 0.5 µM) [µmol/min] | Vmax of xanthine oxidase (xanthine oxidase; Conc. of RU3a3 1.0 µM) [µmol/min] | Manner of xanthine oxidase inhibition (xanthine oxidase; Lineweaver-Burk plot)
1 | CC1OC(OCC2OC(Oc3c(-c4ccc(O)c(O)c4)oc4cc(O)cc(O)c4c3=Nc3ccc([N+](=O)[O-])cc3Cl)C(O)C(O)C2O)C(O)C(O)C1O (centres unmarked) [RU4b1] | 2.65 ± 0.09 | 9.86 ± 0.25 | – | – | – | –
2 | CC1OC(OCC2OC(Oc3c(-c4ccc(O)c(O)c4)oc4cc(O)cc(O)c4c3=NNC(N)=S)C(O)C(O)C2O)C(O)C(O)C1O (centres unmarked) [RU3a1] | 5.02 ± 0.1 | 9.13 ± 0.35 | – | – | – | –
3 | CC1OC(OCC2OC(Oc3c(-c4ccc(O)c(O)c4)oc4cc(O)cc(O)c4c3=NNC(=S)Nc3ccccc3)C(O)C(O)C2O)C(O)C(O)C1O (centres unmarked) [RU3a2] | 8.728 ± 0.02 | 4.146 ± 0.01 | – | – | – | –
4 | CC1OC(OCC2OC(Oc3c(-c4ccc(O)c(O)c4)oc4cc(O)cc(O)c4c3=Nc3ccc([N+](=O)[O-])cc3)C(O)C(O)C2O)C(O)C(O)C1O (centres unmarked) [RU4b2] | 8.48 ± 0.25 | 4.378 ± 0.01 | – | – | – | –

Now from value to molecule:

Row | IC50 [1] [µM] | IC50 [2] [µM] | Vmax of xanthine oxidase (xanthine oxidase; Conc. of RU3a3 0.25 µM) [µmol/min] | Vmax of xanthine oxidase (xanthine oxidase; Conc. of RU3a3 0.5 µM) [µmol/min] | Vmax of xanthine oxidase (xanthine oxidase; Conc. of RU3a3 1.0 µM) [µmol/min] | Manner of xanthine oxidase inhibition (xanthine oxidase; Lineweaver-Burk plot) | Compound
5 | 6.06 ± 0.13 | 14.7 ± 0.6 | – | – | – | – | COc1cc(OC)c2c(=O)c(OC(=O)c3cccnc3)c(-c3ccc(OC)c(OC)c3)oc2c1 [RU7c1]
6 | 11.688 ± 0.01 | 6.56 ± 0.1 | 114.4 | 108.2 | 98.7 | competitive manner | CC1OC(OCC2OC(Oc3c(-c4ccc(O)c(O)c4)oc4cc(O)cc(O)c4c3=NNc3ccccc3)C(O)C(O)C2O)C(O)C(O)C1O (centres unmarked) [RU3a3]
7 | 14.669 ± 0.01 | 12.1 ± 0.2 | – | – | – | – | COc1cc(OC)c2c(=O)c(OC(=O)c3ccccc3O)c(-c3ccc(OC)c(OC)c3)oc2c1 [RU7c2]
8 | 7.69 ± 0.42 | 17.9 ± 0.41 | – | – | – | – | COc1cc(OC)c2c(=O)c(OC(=O)/C=C/c3ccccc3)c(-c3ccc(OC)c(OC)c3)oc2c1 [RU7c3]
